Calls of active or inactive are those of the source. The calls are words filed in the database; no cut-off is given here. Where a SMILES comes first, the peptide text is derived from it. Side-chain parts run from the residue outwards.
How the values were obtained:
Escherichia coli [1] = experiment: Synergistic antibacterial activity against rifampicin resistant Escherichia coli ATCC 25922 assessed as fractional inhibitory concentration index at 0.25 to 4 times MIC incubated for 20 hrs in presence of rifampicin by checkerboard assay; format: functional, organism-based
Cell membrane [2] = experiment: Induction of cytoplasmic membrane depolarization in Staphylococcus aureus assessed as increase in fluorescence intensity at 0.5 to 4 times MIC measured upto 13 mins by DISC3-5 dye based fluorescence analysis
Escherichia coli [3] = experiment: Antibacterial activity against Escherichia coli ATCC 25922 assessed as inhibition of bacterial growth incubated for 20 hrs in presence of KCl by broth microdilution method (reference value: 4 microM); format: functional, organism-based
Staphylococcus aureus [4] = experiment: Additive antibacterial activity against Staphylococcus aureus ATCC 25923 assessed as fractional inhibitory concentration index at 0.25 to 4 times MIC incubated for 20 hrs in presence of rifampicin by checkerboard assay; format: functional, organism-based
Escherichia coli [5] = experiment: […] activity against Escherichia coli ATCC 25922 infected in male BALB/c pulmonary infection model assessed as reduction in inflammatory cell infiltration at 10 mg/kg, ip administered at 3 and 12 hrs post infection and measured 24 hrs post infection by H and E staining based analysis; format: functional, organism-based; conditions: time 12-21 hrs
Escherichia coli [6] = experiment: Synergistic antibacterial activity against Escherichia coli ATCC 25922 assessed as fractional inhibitory concentration index at 0.25 to 4 times MIC incubated for 20 hrs in presence of vancomycin by checkerboard assay; format: functional, organism-based
Escherichia coli [7] = experiment: […] activity against Escherichia coli ATCC 25922 infected in male BALB/c pulmonary infection model assessed as reduction in lung inflammation at 10 mg/kg, ip administered at 3 and 12 hrs post infection and measured 24 hrs post infection by H and E staining based analysis; format: functional, organism-based; conditions: time 12-21 hrs
Escherichia coli [8] = experiment: Bactericidal activity against Escherichia coli ATCC 25922 assessed as elimination of bacteria at 2 times MIC measured after 1 hrs by time kill assay; format: functional, organism-based
Escherichia coli [9] = experiment: Antibacterial activity against Escherichia coli ATCC 25922 assessed as inhibition of bacterial growth incubated for 20 hrs in presence of MgCl2 by broth microdilution method (reference value: 4 microM); format: functional, organism-based
Cell membrane [10] = experiment: Induction of cell membrane damage in Escherichia coli assessed as PI uptake at 2 times MIC measured after 2 hrs by PI dye based flow cytometry analysis (reference value: 16.5%); format: cell membranes
Escherichia coli [11] = experiment: Antibacterial activity against Escherichia coli ATCC 25922 assessed as inhibition of bacterial growth incubated for 20 hrs in presence of FeCl3 by broth microdilution method (reference value: 4 microM); format: functional, organism-based
Escherichia coli [12] = experiment: Synergistic antibacterial activity against Escherichia coli ATCC 25922 assessed as fractional inhibitory concentration index at 0.25 to 4 times MIC incubated for 20 hrs in presence of gentamicin by checkerboard assay; format: functional, organism-based
Escherichia coli [13] = experiment: Antibacterial activity against Escherichia coli ATCC 25922 assessed as inhibition of bacterial growth incubated for 20 hrs in presence of ZnCl2 by broth microdilution method (reference value: 4 microM); format: functional, organism-based
Staphylococcus aureus [14] = experiment: Bactericidal activity against Staphylococcus aureus ATCC 25923 assessed as elimination of bacteria at 2 times MIC measured after >6 hrs by time kill assay; format: functional, organism-based
Staphylococcus aureus [15] = experiment: Additive antibacterial activity against gentamicin resistant Staphylococcus aureus ATCC 25923 assessed as fractional inhibitory concentration index at 0.25 to 4 times MIC incubated for 20 hrs in presence of gentamicin by checkerboard assay; format: functional
[16] = Systemic toxicity in male BALB/c mouse assessed as lung inflammatory cell infiltration at 105.41 mg/kg, ip administered as single dose by H and E staining based analysis; format: organism-based; conditions: in vivo
[17] = Systemic toxicity in male BALB/c mouse assessed as hepatocyte hemorrhage at 105.41 mg/kg, ip administered as single dose by H and E staining based analysis; format: organism-based; conditions: hepatocytes
Staphylococcus aureus [18] = experiment: Synergistic antibacterial activity against gentamicin resistant Staphylococcus aureus ATCC 25923 assessed as fractional inhibitory concentration index at 0.25 to 4 times MIC incubated for 20 hrs in presence of gentamicin by checkerboard assay; format: functional
Staphylococcus aureus [19] = experiment: Antibacterial activity against Staphylococcus aureus ATCC 25923 assessed as inhibition of bacterial growth incubated for 20 hrs in presence of FeCl3 by broth microdilution method (reference value: 8 microM); format: functional
Staphylococcus aureus [20] = experiment: Resistant development in Staphylococcus aureus assessed as increase in MIC at sub-MIC in presence of gentamicin measured after 20 passages; format: functional, organism-based
Staphylococcus aureus [21] = experiment: Antibacterial activity against Staphylococcus aureus ATCC 25923 assessed as inhibition of bacterial growth incubated for 20 hrs in presence of KCl by broth microdilution method (reference value: 8 microM); format: functional
Escherichia coli [22] = experiment: Antibacterial activity against Escherichia coli ATCC 25922 assessed as inhibition of bacterial growth incubated for 20 hrs in presence of FeCl3 by broth microdilution method (reference value: 8 microM); format: functional
Escherichia coli [23] = experiment: Antibacterial activity against Escherichia coli ATCC 25922 assessed as inhibition of bacterial growth incubated for 20 hrs in presence of NaCl by broth microdilution method (reference value: 8 microM); format: functional
Escherichia coli [24] = experiment: Antibacterial activity against Escherichia coli ATCC 25922 assessed as inhibition of bacterial growth incubated for 20 hrs in presence of ZnCl2 by broth microdilution method (reference value: 8 microM); format: functional
Cell membrane [25] = experiment: Induction of cell membrane damage in Escherichia coli assessed as increase in PI uptake at 2 times MIC measured after 2 hrs by PI dye based flow cytometry analysis; format: cell membranes
Cell membrane [26] = experiment: Induction of cytoplasmic membrane depolarization in Staphylococcus aureus assessed as increase in fluorescence intensity at >1 times MIC measured within 1 min by DISC3-5 dye based fluorescence analysis
Cell membrane [27] = experiment: Induction of cell membrane damage in Staphylococcus aureus assessed as PI uptake at 2 times MIC measured after 0.5 hrs by PI dye based flow cytometry analysis (reference value: 24.2%); format: cell membranes
[28] = Systemic toxicity in male BALB/c mouse assessed as renal cell necrosis at 109.31 mg/kg, ip administered as single dose by H and E staining based analysis; format: organism-based; conditions: in vivo
Escherichia coli [29] = experiment: Antibacterial activity against Escherichia coli ATCC 25922 assessed as inhibition of bacterial growth incubated for 20 hrs in presence of FeCl3 by broth microdilution method (reference value: 16 microM); format: functional
Staphylococcus aureus [30] = experiment: Additive antibacterial activity against rifampicin resistant Staphylococcus aureus ATCC 25923 assessed as fractional inhibitory concentration index at 0.25 to 4 times MIC incubated for 20 hrs in presence of rifampicin by checkerboard assay; format: functional
Staphylococcus aureus [31] = experiment: Antibacterial activity against Staphylococcus aureus ATCC 25923 assessed as inhibition of bacterial growth upto 200 ug/ml pretreated with trypsin for 6 hrs and measured after 18 hrs by absorbance based method; format: functional, organism-based; conditions: dose <= 200.0 µg/ml, time 24.0 hrs
Escherichia coli [32] = experiment: Antibacterial activity against Escherichia coli ATCC 25922 assessed as inhibition of bacterial growth incubated for 20 hrs in presence of KCl by broth microdilution method (reference value: 16 microM); format: functional
Escherichia coli [33] = experiment: Additive antibacterial activity against Escherichia coli ATCC 25922 assessed as fractional inhibitory concentration index at 0.25 to 4 times MIC incubated for 20 hrs in presence of kanamycin by checkerboard assay; format: functional

Which fractional inhibitory concentration index (FICI) (Escherichia coli [1]) does the source give for POLYMYXIN B here?
The fractional inhibitory concentration index (FICI) was 0.313.

And the Activity (Cell membrane [2])?
The Activity was “inactive”.

And the MIC (Escherichia coli [3])?
The MIC was 4 µM.

What about the fractional inhibitory concentration index (FICI) (Staphylococcus aureus [4]) of the same compound?
Its fractional inhibitory concentration index (FICI) is 0.563.

What about the Activity (Escherichia coli [5]) of the same compound?
The Activity was “inactive”.

And the fractional inhibitory concentration index (FICI) (Escherichia coli [6])?
Its fractional inhibitory concentration index (FICI) is 0.313.

And the Activity (Escherichia coli [7])?
Its Activity is “inactive”.

And the Activity (Escherichia coli [8])?
Its Activity is 100%.

And the MIC (Escherichia coli [9])?
Its MIC is 2 µM.

What about the Activity (Cell membrane [10]) of the same compound?
Its Activity is 46.8%.

What about the MIC (Escherichia coli [11]) of the same compound?
The MIC was 4 µM.

And the fractional inhibitory concentration index (FICI) (Escherichia coli [12])?
The fractional inhibitory concentration index (FICI) was 0.313.

And the MIC (Escherichia coli [13])?
Its MIC is 8 µM.

And the Activity (Staphylococcus aureus [14])?
Its Activity is 100%.

And the fractional inhibitory concentration index (FICI) (Staphylococcus aureus [15])?
The fractional inhibitory concentration index (FICI) was 1.

For N=C(N)NCCC[C@H](NC(=O)[C@H](CCCNC(=N)N)NC(=O)[C@H](CCCNC(=N)N)NC(=O)[C@@H](N)CCCNC(=N)N)C(=O)N[C@@H](CCCCN)C(=O)N[C@@H](Cc1c[nH]c2ccccc12)C(=O)N[C@@H](Cc1c[nH]c2ccccc12)C(=O)N[C@@H](Cc1c[nH]c2ccccc12)C(=O)N[C@@H](Cc1c[nH]c2ccccc12)C(N)=O, which Activity [16] is on record?
The Activity was “Non-Toxic”.

What about the Activity [17] of the same compound?
The Activity was “Non-Toxic”.

And the “fractional inhibitory concentration index (FICI)” value (Staphylococcus aureus [18])?
Its value is 0.5.

And the MIC (Staphylococcus aureus [19])?
Its MIC is 8 µM.

And the Activity (Staphylococcus aureus [20])?
Its Activity is “inactive”.

What about the MIC (Staphylococcus aureus [21]) of the same compound?
Its MIC is 8 µM.

And the MIC (Escherichia coli [22])?
The MIC was 16 µM.

And the MIC (Escherichia coli [23])?
Its MIC is 16 µM.

What about the MIC (Escherichia coli [24]) of the same compound?
The MIC was 8 µM.

What about the Activity (Cell membrane [25]) of the same compound?
The Activity was “inactive”.

And the Activity (Cell membrane [26])?
The Activity was “Active”.

And the Activity (Cell membrane [27])?
Its Activity is greater than 90%.

Which Activity [28] does the source give for N=C(N)NCCC[C@H](NC(=O)[C@@H](N)CCCNC(=N)N)C(=O)NCCCC[C@H](NC(=O)[C@H](CCCNC(=N)N)NC(=O)[C@@H](N)CCCNC(=N)N)C(=O)N[C@@H](Cc1c[nH]c2ccccc12)C(=O)N[C@@H](Cc1c[nH]c2ccccc12)C(=O)N[C@@H](Cc1c[nH]c2ccccc12)C(=O)N[C@@H](Cc1c[nH]c2ccccc12)C(N)=O (H-RRK([Arg-Arg])WWWW-NH2) here?
Its Activity is “Non-Toxic”.

And the Activity (Staphylococcus aureus [20])?
Its Activity is “inactive”.

And the MIC (Escherichia coli [29])?
Its MIC is 16 µM.

And the “fractional inhibitory concentration index (FICI)” value (Staphylococcus aureus [30])?
Its value is 0.563.

And the Activity (Staphylococcus aureus [31])?
Its Activity is “Active”.

What about the Activity (Cell membrane [25]) of the same compound?
The Activity was “inactive”.

What about the MIC (Escherichia coli [32]) of the same compound?
The MIC was 16 µM.

What about the Activity (Cell membrane [26]) of the same compound?
Its Activity is “Active”.

What about the “fractional inhibitory concentration index (FICI)” value (Staphylococcus aureus [15]) of the same compound?
The value was 0.563.

And the Activity (Cell membrane [27])?
The Activity was greater than 90%.

And the “fractional inhibitory concentration index (FICI)” value (Escherichia coli [33])?
The value was 0.563.

Source: ChEMBL document CHEMBL5500371, “Arginine and tryptophan-rich dendritic antimicrobial peptides that disrupt membranes for bacterial infection in vivo” (Eur J Med Chem, 2024)
